Results published in ChEMBL document CHEMBL3779894, “Synthesis and in Vitro Screening of New Series of 2,6-Dipeptidyl-anthraquinones: Influence of Side Chain Length on HIV-1 Nucleocapsid Inhibitors” (J Med Chem, 2016).
Activity calls are given as the source filed them. No cut-off for these calls is given here.

Tests used:
[1] = Inhibition of recombinant full length HIV-1 nucleocapsid assessed as inhibition of nucleocapsid-mediated melting of cTAR DNA measured 3 times with 1 min interval by FRET based assay; design: species or system Human immunodeficiency virus 1
[2] = Inhibition of recombinant full length HIV-1 nucleocapsid assessed as inhibition of TAR RNA/cTAR DNA annealing preincubated with oligonucleotides for 15 mins followed by nucleocapsid addition measured after 15 mins by NAME assay; design: species or system Human immunodeficiency virus 1
[3] = tested on: Human immunodeficiency virus 1; experiment: Inhibition of recombinant full length HIV-1 nucleocapsid assessed as inhibition of TAR RNA /cTAR DNA annealing at 50 to 100 uM preincubated with oligonucleotides for 15 mins followed by nucleocapsid addition measured after 15 mins by NAME assay
[4] = tested on: Human immunodeficiency virus 1; experiment: Binding affinity to HIV-1 29-mer TAR RNA assessed as 3:1 compound-RNA complex formation at 10 uM by ESI-MS analysis
[5] = tested on: Human immunodeficiency virus 1; experiment: Binding affinity to HIV-1 cTAR DNA assessed as 4:1 […] complex formation at 10 uM by ESI-MS analysis
[6] = tested on: Human immunodeficiency virus 1; experiment: Binding affinity to HIV-1 29-mer TAR RNA assessed as increase in melting temperature at 10 uM by fluorescence quenching assay
[7] = tested on: Human immunodeficiency virus 1; experiment: Binding affinity to HIV-1 cTAR DNA assessed as increase in melting temperature at 10 uM by fluorescence quenching assay
[8] = tested on: Human immunodeficiency virus 1; experiment: Binding affinity to HIV-1 cTAR DNA-29-mer TAR RNA duplex assessed as increase in melting temperature at 10 uM by fluorescence quenching assay
[9] = tested on: Human immunodeficiency virus 1; experiment: Selectivity index, ratio of melting temperature for HIV-1 29-mer TAR RNA to HIV-1 cTAR DNA
[10] = Inhibition of recombinant full length HIV-1 nucleocapsid assessed as inhibition of nucleocapsid-mediated melting of TAR RNA measured 3 times with 1 min interval by FRET based assay; design: species or system Human immunodeficiency virus 1
[11] = tested on: Human immunodeficiency virus 1; experiment: Inhibition of recombinant full length HIV-1 nucleocapsid assessed as inhibition of TAR RNA/cTAR DNA annealing upto 100 uM preincubated with oligonucleotides for 15 mins followed by nucleocapsid addition measured after 15 mins by NAME assay
[12] = tested on: Human immunodeficiency virus 1; experiment: Inhibition of recombinant full length HIV-1 nucleocapsid assessed as inhibition of TAR RNA /cTAR DNA annealing at 20 to 50 uM preincubated with oligonucleotides for 15 mins followed by nucleocapsid addition measured after 15 mins by NAME assay
[13] = tested on: Human immunodeficiency virus 1; experiment: Binding affinity to HIV-1 cTAR DNA at 10 uM by ESI-MS analysis
[14] = tested on: Human immunodeficiency virus 1; experiment: Binding affinity to HIV-1 29-mer TAR RNA at 10 uM by ESI-MS analysis
[15] = tested on: Human immunodeficiency virus 1; experiment: Binding affinity to HIV-1 29-mer TAR RNA assessed as 1:1 compound-RNA complex formation at 10 uM by ESI-MS analysis
[16] = tested on: Human immunodeficiency virus 1; experiment: Binding affinity to HIV-1 cTAR DNA assessed as 2:1 […] complex formation at 10 uM by ESI-MS analysis

Compound | IC50 [1] | IC50 [2] | inhibition [3] | Activity [4] | Activity [5] | Activity [6] | Activity [7] | Activity [8] | Ratio [9] | IC50 [10] | inhibition [11] | inhibition [12] | Activity [13] | Activity [14] | Activity [15] | Activity [16]
C[C@H](NC(=O)C(N)CCCN)C(=O)Nc1ccc2c(c1)C(=O)c1ccc(NC(=O)[C@H](C)NC(=O)C(N)CCCN)cc1C2=O (some centres undefined) | 1.93 µM | 49.1 µM | Active | Active | Active | Active | Active | Active | 0.58 | 4.91 µM | – | – | – | – | – | –
C[C@H](NC(=O)C(N)Cc1ccc(N)cc1)C(=O)Nc1ccc2c(c1)C(=O)c1ccc(NC(=O)[C@H](C)NC(=O)C(N)Cc3ccc(N)cc3)cc1C2=O (some centres undefined) | 7.53 µM | – | – | – | – | – | – | – | – | 7.29 µM | inactive | – | – | – | – | –
C[C@H](NC(=O)C(N)CCCCN)C(=O)Nc1ccc2c(c1)C(=O)c1ccc(NC(=O)[C@H](C)NC(=O)C(N)CCCCN)cc1C2=O (some centres undefined) | 2.68 µM | 80.4 µM | Active | Active | Active | Active | Active | Active | 0.56 | 6.61 µM | – | – | – | – | – | –
NCCCCC(N)C(=O)NCC(=O)Nc1ccc2c(c1)C(=O)c1ccc(NC(=O)CNC(=O)C(N)CCCCN)cc1C2=O (centres undefined) | 1.11 µM | 23.5 µM | – | – | – | Active | Active | Active | 0.72 | 2.12 µM | – | Active | Active | Active | – | –
O=C(CNC(=O)C1CCNCC1)Nc1ccc2c(c1)C(=O)c1ccc(NC(=O)CNC(=O)C3CCNCC3)cc1C2=O | 10.7 µM | – | – | – | – | Active | Active | Active | – | 10.7 µM | inactive | – | – | – | Active | Active
C[C@H](NC(=O)CCN)C(=O)Nc1ccc2c(c1)C(=O)c1ccc(NC(=O)[C@H](C)NC(=O)CCN)cc1C2=O | 12.7 µM | – | – | – | – | – | – | – | – | 39.5 µM | inactive | – | – | – | – | –
C[C@H](NC(=O)C(N)CN)C(=O)Nc1ccc2c(c1)C(=O)c1ccc(NC(=O)[C@H](C)NC(=O)C(N)CN)cc1C2=O (some centres undefined) | 44.1 µM | – | – | – | – | inactive | inactive | – | – | 67.1 µM | inactive | – | – | – | – | –
NC1(C(=O)NCC(=O)Nc2ccc3c(c2)C(=O)c2ccc(NC(=O)CNC(=O)C4(N)CCNCC4)cc2C3=O)CCNCC1 | 5.13 µM | > 100 µM | Active | – | – | Active | Active | Active | – | 7.79 µM | – | – | – | – | – | –
NCCCC(N)C(=O)NCC(=O)Nc1ccc2c(c1)C(=O)c1ccc(NC(=O)CNC(=O)C(N)CCCN)cc1C2=O (centres undefined) | 1.81 µM | 54.1 µM | – | Active | – | Active | Active | Active | 0.72 | 2.62 µM | – | Active | Active | – | – | –
C[C@H](NC(=O)C1CCNCC1)C(=O)Nc1ccc2c(c1)C(=O)c1ccc(NC(=O)[C@H](C)NC(=O)C3CCNCC3)cc1C2=O | 12 µM | – | – | – | – | – | – | – | – | 20.8 µM | inactive | – | – | – | Active | Active
NCCC(=O)NCC(=O)Nc1ccc2c(c1)C(=O)c1ccc(NC(=O)CNC(=O)CCN)cc1C2=O | 4.06 µM | > 100 µM | Active | – | – | Active | Active | Active | – | 6.42 µM | – | – | – | – | – | –
NC[C@H]1CC[C@H](C(=O)NCC(=O)Nc2ccc3c(c2)C(=O)c2ccc(NC(=O)CNC(=O)[C@H]4CC[C@H](CN)CC4)cc2C3=O)CC1 | 9.75 µM | – | – | – | – | inactive | inactive | inactive | – | 11.3 µM | – | – | – | – | – | –
C[C@H](NC(=O)C(N)CCN)C(=O)Nc1ccc2c(c1)C(=O)c1ccc(NC(=O)[C@H](C)NC(=O)C(N)CCN)cc1C2=O (some centres undefined) | 4.28 µM | > 100 µM | – | – | – | Active | Active | Active | 0.5 | 6.9 µM | inactive | – | – | – | – | –
C[C@H](NC(=O)C1(N)CCNCC1)C(=O)Nc1ccc2c(c1)C(=O)c1ccc(NC(=O)[C@H](C)NC(=O)C3(N)CCNCC3)cc1C2=O | 14.6 µM | – | – | – | – | – | – | – | – | 40.2 µM | inactive | – | – | – | – | –
NCCC(N)C(=O)NCC(=O)Nc1ccc2c(c1)C(=O)c1ccc(NC(=O)CNC(=O)C(N)CCN)cc1C2=O (centres undefined) | 4.61 µM | 81.4 µM | Active | – | – | Active | Active | Active | 0.97 | 3.87 µM | – | – | – | – | – | –
C[C@H](NC(=O)[C@H]1CC[C@H](CN)CC1)C(=O)Nc1ccc2c(c1)C(=O)c1ccc(NC(=O)[C@H](C)NC(=O)[C@H]3CC[C@H](CN)CC3)cc1C2=O | 14.6 µM | – | – | – | – | – | – | – | – | 14.8 µM | inactive | – | – | – | – | –
Nc1ccc(CC(N)C(=O)NCC(=O)Nc2ccc3c(c2)C(=O)c2ccc(NC(=O)CNC(=O)C(N)Cc4ccc(N)cc4)cc2C3=O)cc1 (centres undefined) | 7.78 µM | > 100 µM | – | – | – | inactive | inactive | inactive | – | 7.72 µM | inactive | – | – | – | – | –
NCC(N)C(=O)NCC(=O)Nc1ccc2c(c1)C(=O)c1ccc(NC(=O)CNC(=O)C(N)CN)cc1C2=O (centres undefined) | 3.81 µM | 103 µM | Active | – | – | Active | Active | Active | – | 4.22 µM | – | – | – | – | – | –
